Source: patent publication US20110144331A1, “Cinnoline Compounds for the Treatment of Anxiety, Cognitive and Mood Disorders” (AstraZeneca AB, priority 2005, published 2011)

Columns and labels:
[1] = target: T1, human α1β2γ2 GABAA receptor (Homo sapiens, UniProt P14867+P18507); assay: Two-electrode voltage-clamp in Xenopus oocytes, potentiation of GABA EC10 current, GABAA1; type: cell-based; settings: percentage potentiation of GABA EC10 current divided by that of diazepam control
T1 construct: expressed in transfected cells; host or cells: Xenopus laevis oocytes injected with capped cRNA
T1 sequence (P14867 28-456): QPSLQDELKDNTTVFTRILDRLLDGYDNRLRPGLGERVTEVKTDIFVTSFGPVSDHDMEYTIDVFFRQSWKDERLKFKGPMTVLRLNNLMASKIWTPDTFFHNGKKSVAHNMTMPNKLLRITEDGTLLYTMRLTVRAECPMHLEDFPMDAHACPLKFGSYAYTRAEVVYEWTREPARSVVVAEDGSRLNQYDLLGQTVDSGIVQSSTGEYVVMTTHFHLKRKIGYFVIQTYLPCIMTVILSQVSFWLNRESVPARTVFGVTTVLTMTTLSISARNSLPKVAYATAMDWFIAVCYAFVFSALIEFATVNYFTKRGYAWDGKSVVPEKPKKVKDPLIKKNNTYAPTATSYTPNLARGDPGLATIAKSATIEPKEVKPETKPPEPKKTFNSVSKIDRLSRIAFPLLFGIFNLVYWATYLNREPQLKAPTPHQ
T1 sequence (P47870 25-512 partner limits assumed): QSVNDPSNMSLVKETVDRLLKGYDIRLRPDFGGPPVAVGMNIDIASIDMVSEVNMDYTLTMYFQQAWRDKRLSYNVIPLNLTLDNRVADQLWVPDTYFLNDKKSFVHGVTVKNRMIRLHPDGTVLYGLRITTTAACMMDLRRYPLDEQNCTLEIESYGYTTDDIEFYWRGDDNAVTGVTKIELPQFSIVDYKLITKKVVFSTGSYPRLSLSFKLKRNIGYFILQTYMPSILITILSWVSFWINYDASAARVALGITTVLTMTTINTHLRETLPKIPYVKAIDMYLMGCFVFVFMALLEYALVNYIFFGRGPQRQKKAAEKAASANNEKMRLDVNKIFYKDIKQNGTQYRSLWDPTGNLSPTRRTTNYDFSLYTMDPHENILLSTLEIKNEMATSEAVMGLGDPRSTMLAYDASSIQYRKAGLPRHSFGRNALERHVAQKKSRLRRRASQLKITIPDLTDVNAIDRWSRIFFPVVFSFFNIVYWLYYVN
T1 sequence (P18507 40-475): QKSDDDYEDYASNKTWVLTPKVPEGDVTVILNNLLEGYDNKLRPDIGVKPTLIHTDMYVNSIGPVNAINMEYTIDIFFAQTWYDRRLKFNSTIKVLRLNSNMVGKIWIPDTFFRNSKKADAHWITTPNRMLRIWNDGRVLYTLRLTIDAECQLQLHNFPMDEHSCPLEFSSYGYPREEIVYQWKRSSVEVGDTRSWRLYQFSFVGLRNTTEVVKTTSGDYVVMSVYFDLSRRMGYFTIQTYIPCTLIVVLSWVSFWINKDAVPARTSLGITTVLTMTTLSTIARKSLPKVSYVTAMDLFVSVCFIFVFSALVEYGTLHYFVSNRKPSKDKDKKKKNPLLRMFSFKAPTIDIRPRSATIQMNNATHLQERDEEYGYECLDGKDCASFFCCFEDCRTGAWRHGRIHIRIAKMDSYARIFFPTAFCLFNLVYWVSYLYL
Procedure: (§1) GABAA receptors were heterologously expressed in Xenopus oocytes by injecting cRNA corresponding to human α1, α2, α3, α5, β2, β3 and γ2 subunits of the GABAA receptor genes. The specific subunit combinations (subtypes) were as follows: α1β2γ2, α2β3γ2, α3β3γ2, and α5β3γ2. The EC10 of GABA was approximated for each cell. Stability of GABA-mediated (EC10) current was established. Modulatory effect of test compound was determined and compared across subtypes. […] Thus, the assay can characterize modulatory effects and determine subtype selectivity of test compounds on major subtypes of GABAA receptors.
(§2) Surgically removed ovarian lobes were teased out in OR2 solution (82 NaCl, 2.5 KCl, 5 HEPES, 1.5 NaH2PO4, 1 MgCl2, 0.1 EDTA, in mM, pH 7.4). The oocytes were defolliculated by incubation in 25 mL OR2 containing 0.2% collagenase 1A (SIGMA) two times for about 60 minutes on a platform shaker and stored in Leibovitz's L-15 medium. Oocytes were injected the following day in 0.5× Leibovitz's L-15 medium containing […] gentamycin, 10 units/ml penicillin, and […] streptomycin.
(§3) Capped cRNAs from the linearized vectors containing human α1, β2 and γ2 subunits of the GABAA receptor genes were mixed in ratio of 1:1:30. Oocytes were injected with 25-50 nL of mixed RNA with an appx molar ratio for α1, β2, and γ2 as 1:1:10. Oocyte recordings were done 2-10 days after injection. The same methods apply to subtypes derived from α2β2γ2, α3β3γ2, and α5β3γ2, except for 1:1:1 ratio was used for α, β, and γ subunits.
(§4) All measurements were done in a medium containing ND-96 (96 NaCl, 2 KCl, 1.8 CaCl2.2H2O, 1 MgCl2.6H2O, 5 HEPES, in mM, pH 7.5). Two-electrode voltage-clamp recording was carried out using OpusXpress amplifier (Axon Instruments, Foster City, Calif.), which allows simultaneous recording from 8 oocytes. Oocytes were impaled with two electrodes of 1-2 MΩ tip resistance when filled with 3M KCl. Recordings were begun when membrane potential became stable at potentials negative to −50-−60 mV. Membrane potential was held at −60 mV. […] The concentration of GABA corresponded to the EC10 value calculated for each oocyte. The modulator pulses started 30 s before the GABA pulse so as to allow preincubation with the modulator. A set of 3 pulses with just GABA without modulator was given prior to the modulator-containing pulses to define the baseline GABA response. Two oocytes per each experiment were dedicated to observe the effect of diazepam on GABA response to ensure the presence of γ2 subunit in the GABAA pentameric complex, which imparts diazepam sensitivity to the complex.
(§5) Current amplitude (i) was measured from baseline to peak using Clampfit (Axon Inst., Foster City, Calif.). Potentiation was calculated as percent change from the baseline GABA current flux 100×(imod/icontrol)−1) where imod=current mediated by modulator+GABA and icontrol=current mediated by GABA alone. […] Similarly, a value of −50% potentiation means the presence of modulator caused a 50% decrease in the control current. Various other data shown here were fitted and plotted using GraphPad Prism (GraphPad Software, Inc. San Diego, Calif.). The percentage potentiation was converted to relative potentiation by dividing it with percentage potentiation value obtained from the same assay with diazepam as a control.

[2] = target: T2, human α2β3γ2 GABAA receptor (Homo sapiens, UniProt P18507+P47869); assay: Two-electrode voltage-clamp in Xenopus oocytes, potentiation of GABA EC10 current, GABAA2; type: cell-based; settings: percentage potentiation of GABA EC10 current divided by that of diazepam control
T2 construct: expressed in transfected cells; host or cells: Xenopus laevis oocytes injected with capped cRNA (α:β:γ 1:1:1)
T2 sequence (P47869 29-451): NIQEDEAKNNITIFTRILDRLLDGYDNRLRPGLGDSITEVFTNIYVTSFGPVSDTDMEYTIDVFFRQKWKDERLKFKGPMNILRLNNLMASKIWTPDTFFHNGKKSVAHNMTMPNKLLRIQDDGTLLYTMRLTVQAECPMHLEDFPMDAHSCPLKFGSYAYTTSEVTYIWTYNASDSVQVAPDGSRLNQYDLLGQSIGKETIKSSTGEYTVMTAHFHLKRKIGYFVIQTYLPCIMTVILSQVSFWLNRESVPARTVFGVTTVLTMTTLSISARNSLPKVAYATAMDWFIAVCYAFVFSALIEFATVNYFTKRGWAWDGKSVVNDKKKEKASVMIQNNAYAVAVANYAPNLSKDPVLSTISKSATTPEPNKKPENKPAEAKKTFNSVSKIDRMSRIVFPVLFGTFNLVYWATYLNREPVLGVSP
T2 sequence (P18507 40-475): as the sequence (P18507 40-475) above
T2 sequence (P28472 26-473 partner): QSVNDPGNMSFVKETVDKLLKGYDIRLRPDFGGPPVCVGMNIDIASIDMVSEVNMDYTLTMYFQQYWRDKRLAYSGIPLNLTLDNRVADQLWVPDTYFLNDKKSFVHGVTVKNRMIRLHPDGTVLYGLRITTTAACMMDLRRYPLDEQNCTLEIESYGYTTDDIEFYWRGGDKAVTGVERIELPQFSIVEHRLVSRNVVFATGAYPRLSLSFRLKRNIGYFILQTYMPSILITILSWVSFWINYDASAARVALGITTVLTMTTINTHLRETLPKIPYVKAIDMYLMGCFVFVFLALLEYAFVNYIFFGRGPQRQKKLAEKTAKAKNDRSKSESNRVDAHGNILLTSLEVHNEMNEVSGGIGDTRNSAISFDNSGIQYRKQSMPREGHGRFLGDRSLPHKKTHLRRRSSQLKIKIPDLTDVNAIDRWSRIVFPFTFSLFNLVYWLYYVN
Procedure: as §1, §2, §3, §4, §5

Structure (SMILES) | Relative Potentiation for GABAA1 [1] | Relative Potentiation for GABAA2 [2]
CCCNC(=O)c1nnc2c(-c3cnc(OC)nc3OC)c(F)ccc2c1N | 0.12 | 0.39
CCCNC(=O)c1nnc2c(-c3ccc(C)c(C)c3)cccc2c1N | 0.23 | 0.35
CCCNC(=O)c1nnc2c(-c3cc(Cl)ccc3OC)c(F)ccc2c1N | 0.25 | 
CCCNC(=O)c1nnc2c(-c3cccc(C)c3C)c(F)ccc2c1N | 0.11 | 0.13
CCNC(=O)c1nnc2c(-c3cc(C)ccc3OC)cccc2c1N | 0.23 | 
COc1ccc(F)cc1-c1cccc2c(N)c(C(=O)NC3CC3)nnc12 | −0.028 | 0.357
CCCNC(=O)c1nnc2c(-c3cc(F)ccc3C)cccc2c1N | 0.02 | 0.22
CCCNC(=O)c1nnc2c(-c3cc(OC)ccc3OC)c(Cl)ccc2c1N | 0.32 | 
CCCNC(=O)c1nnc2c(-c3ccc(C)nc3F)cccc2c1N | 0.053 | 0.27
CCCCNC(=O)c1nnc2c(-c3cnccc3OC)cccc2c1N | 0.2 | 0.52
COc1cccc(F)c1-c1cccc2c(N)c(C(=O)NC3CC3)nnc12 | −0.048 | 0.16
CCCNC(=O)c1nnc2c(-c3cccc(Cl)c3)cccc2c1N | 0.18 | 0.53
CCCNC(=O)c1nnc2c(-c3ccc(OC)cc3F)c(F)ccc2c1N | 0.053 | 0.18
CCCNC(=O)c1nnc2c(-c3ccc(OC)nc3OC)cccc2c1N | 0.17 | 0.25
CCCNC(=O)c1nnc2c(-c3ccc(OC)cc3OC)c(Cl)ccc2c1N | 0.87 | 
COc1cccc(F)c1-c1cccc2c(N)c(C(=O)NC3CCC3)nnc12 | 0.0017 | 0.12
CCCNC(=O)c1nnc2c(-c3cc(OC)cc(OC)c3)cccc2c1N | 0.28 | 0.57
CCCNC(=O)c1nnc2c(-c3cccc(N(C)C)c3)cccc2c1N | 0.17 | 0.19
CCCNC(=O)c1nnc2c(-c3ccc(OC(F)(F)F)cc3)cccc2c1N | 0.32 | 0.04

Structure (SMILES) | Relative Potentiation for GABAA1 [1] | Relative Potentiation for GABAA2 [2]
CCCNC(=O)c1nnc2c(-c3cnc(OC)nc3)cccc2c1N | −0.066 | 0.11
CCCNC(=O)c1nnc2c(-c3cnccc3C)cccc2c1N | 0.083 | 0.11
CCCNC(=O)c1nnc2c(-c3ccccc3)c(OC)ccc2c1N | 0.12 | 0.08
CCCNC(=O)c1nnc2c(-c3cccnc3)cccc2c1N | −0.11 | 0.054
CCNC(=O)c1nnc2c(-c3cnc(OC)c(F)c3)cccc2c1N | −0.010 | 0.223
CCCNC(=O)c1nnc2c(-c3cccc(Cl)c3Cl)cccc2c1N | 0.067 | 0.053
CCCNC(=O)c1nnc2c(-c3cc(C)ccc3C)c(Cl)ccc2c1N | 0.24 | 0.22
CCCCNC(=O)c1nnc2c(-c3cnc(OC)nc3OC)cccc2c1N | 0.16 | 0.45
CCCNC(=O)c1nnc2c(-c3cc(Cl)cc(Cl)c3)c(F)ccc2c1N | 0.36 | 
CCCNC(=O)c1nnc2c(-c3cc(C)ccc3C)c(F)ccc2c1N | 0.21 | 0.28
CCCNC(=O)c1nnc2c(-c3cc(F)ccc3F)cccc2c1N | −0.078 | 0.29
CCCNC(=O)c1nnc2c(-c3ccccc3)c(F)ccc2c1N | −0.093 | 0.02
CCCNC(=O)c1nnc2c(-c3c(Cl)cccc3OC)cccc2c1N [drawing 410] | −0.040 | 0.119
CCCNC(=O)c1nnc2c(-c3cccc(OC)c3F)cccc2c1N | 0.045 | 0.26
CCCNC(=O)c1nnc2c(-c3cc(F)c(OC)cc3F)cccc2c1N | 0.016 | 0.21
CCCNC(=O)c1nnc2c(-c3nc(Br)ccc3OC)cccc2c1N | 0.34 | 
CCCNC(=O)c1nnc2c(-c3cc(C)ccc3OC)c(Cl)ccc2c1N | 0.47 | 
CCCNC(=O)c1nnc2c(-c3ccc(OC)nc3)cccc2c1N | −0.08 | 0.16
CCCNC(=O)c1nnc2c(-c3cc(C)ccc3F)cccc2c1N | 0.095 | 0.37

Structure (SMILES) | Relative Potentiation for GABAA1 [1] | Relative Potentiation for GABAA2 [2]
Cc1ccc(-c2cccc3c(N)c(C(=O)NC4CC4)nnc23)cn1 | −0.166 | 0.074
CCCNC(=O)c1nnc2c(-c3cc(C(F)(F)F)ccc3F)cccc2c1N | 0.41 | 0.59
CCCNC(=O)c1nnc2c(-c3ccc(N(C)C)cc3)cccc2c1N | 0.07 | 0.18
CCCNC(=O)c1nnc2c(-c3ccc(OC)c(OC)c3OC)c(F)ccc2c1N | 0.51 | 
CCCNC(=O)c1nnc2c(-c3cccc(OC)c3F)c(F)ccc2c1N | 0.05 | 0.23
CCCNC(=O)c1nnc2c(-c3ccc(OC)cc3C(F)(F)F)c(F)ccc2c1N | 0.28 | 
CCCNC(=O)c1nnc2c(-c3cc(C)ccc3OC)c(F)ccc2c1N | 0.23 | 0.37
CCCNC(=O)c1nnc2c(-c3cccnc3OC)cccc2c1N | 0.2 | 0.097
CCCNC(=O)c1nnc2c(-c3ccc(F)cc3OCC)c(F)ccc2c1N | 0.27 | 
CCCNC(=O)c1nnc2c(-c3ccc(OC)c(OC)c3)cccc2c1N | 0.33 | 0.28
CCCNC(=O)c1nnc2c(-c3ccc(F)cc3OC)c(F)ccc2c1N | −0.028 | 0.18
CCCNC(=O)c1nnc2c(-c3ccc(OC)cc3)cccc2c1N | −0.11 | 0.06
CCCNC(=O)c1nnc2c(-c3ccc(OC)cc3OC)cccc2c1N | 0.18 | 0.15
Nc1c(C(=O)NCC2CC2)nnc2c(-c3ccccc3)cccc12 | 0.11 | 0.24
CCCNC(=O)c1nnc2c(-c3cc(C)c(OC)c(C)c3)cccc2c1N | 0.79 | 0.32
CCCCNC(=O)c1nnc2c(-c3cc(C)ccc3OC)cccc2c1N | 0.32 | 
CCCNC(=O)c1nnc2c(-c3cc(OC)cc(OC)c3)c(F)ccc2c1N | 0.38 | 
CCCNC(=O)c1nnc2c(-c3cc(Cl)ccc3Cl)c(F)ccc2c1N | 0.21 | 
CCCNC(=O)c1nnc2c(-c3cc(C(=O)N4CCC4)ccc3OC)cccc2c1N | 0.48 | 
